We go through 41 compounds from ChEMBL document CHEMBL4825702, “5-Aminonaphthalene derivatives as selective nonnucleoside nuclear receptor binding SET domain-protein 2 (NSD2) inhibitors for the treatment of multiple myeloma” (Eur J Med Chem, 2021).

Chain of Histone-lysine N-methyltransferase, H3 lysine-36 specific (Q96L73 whole entry): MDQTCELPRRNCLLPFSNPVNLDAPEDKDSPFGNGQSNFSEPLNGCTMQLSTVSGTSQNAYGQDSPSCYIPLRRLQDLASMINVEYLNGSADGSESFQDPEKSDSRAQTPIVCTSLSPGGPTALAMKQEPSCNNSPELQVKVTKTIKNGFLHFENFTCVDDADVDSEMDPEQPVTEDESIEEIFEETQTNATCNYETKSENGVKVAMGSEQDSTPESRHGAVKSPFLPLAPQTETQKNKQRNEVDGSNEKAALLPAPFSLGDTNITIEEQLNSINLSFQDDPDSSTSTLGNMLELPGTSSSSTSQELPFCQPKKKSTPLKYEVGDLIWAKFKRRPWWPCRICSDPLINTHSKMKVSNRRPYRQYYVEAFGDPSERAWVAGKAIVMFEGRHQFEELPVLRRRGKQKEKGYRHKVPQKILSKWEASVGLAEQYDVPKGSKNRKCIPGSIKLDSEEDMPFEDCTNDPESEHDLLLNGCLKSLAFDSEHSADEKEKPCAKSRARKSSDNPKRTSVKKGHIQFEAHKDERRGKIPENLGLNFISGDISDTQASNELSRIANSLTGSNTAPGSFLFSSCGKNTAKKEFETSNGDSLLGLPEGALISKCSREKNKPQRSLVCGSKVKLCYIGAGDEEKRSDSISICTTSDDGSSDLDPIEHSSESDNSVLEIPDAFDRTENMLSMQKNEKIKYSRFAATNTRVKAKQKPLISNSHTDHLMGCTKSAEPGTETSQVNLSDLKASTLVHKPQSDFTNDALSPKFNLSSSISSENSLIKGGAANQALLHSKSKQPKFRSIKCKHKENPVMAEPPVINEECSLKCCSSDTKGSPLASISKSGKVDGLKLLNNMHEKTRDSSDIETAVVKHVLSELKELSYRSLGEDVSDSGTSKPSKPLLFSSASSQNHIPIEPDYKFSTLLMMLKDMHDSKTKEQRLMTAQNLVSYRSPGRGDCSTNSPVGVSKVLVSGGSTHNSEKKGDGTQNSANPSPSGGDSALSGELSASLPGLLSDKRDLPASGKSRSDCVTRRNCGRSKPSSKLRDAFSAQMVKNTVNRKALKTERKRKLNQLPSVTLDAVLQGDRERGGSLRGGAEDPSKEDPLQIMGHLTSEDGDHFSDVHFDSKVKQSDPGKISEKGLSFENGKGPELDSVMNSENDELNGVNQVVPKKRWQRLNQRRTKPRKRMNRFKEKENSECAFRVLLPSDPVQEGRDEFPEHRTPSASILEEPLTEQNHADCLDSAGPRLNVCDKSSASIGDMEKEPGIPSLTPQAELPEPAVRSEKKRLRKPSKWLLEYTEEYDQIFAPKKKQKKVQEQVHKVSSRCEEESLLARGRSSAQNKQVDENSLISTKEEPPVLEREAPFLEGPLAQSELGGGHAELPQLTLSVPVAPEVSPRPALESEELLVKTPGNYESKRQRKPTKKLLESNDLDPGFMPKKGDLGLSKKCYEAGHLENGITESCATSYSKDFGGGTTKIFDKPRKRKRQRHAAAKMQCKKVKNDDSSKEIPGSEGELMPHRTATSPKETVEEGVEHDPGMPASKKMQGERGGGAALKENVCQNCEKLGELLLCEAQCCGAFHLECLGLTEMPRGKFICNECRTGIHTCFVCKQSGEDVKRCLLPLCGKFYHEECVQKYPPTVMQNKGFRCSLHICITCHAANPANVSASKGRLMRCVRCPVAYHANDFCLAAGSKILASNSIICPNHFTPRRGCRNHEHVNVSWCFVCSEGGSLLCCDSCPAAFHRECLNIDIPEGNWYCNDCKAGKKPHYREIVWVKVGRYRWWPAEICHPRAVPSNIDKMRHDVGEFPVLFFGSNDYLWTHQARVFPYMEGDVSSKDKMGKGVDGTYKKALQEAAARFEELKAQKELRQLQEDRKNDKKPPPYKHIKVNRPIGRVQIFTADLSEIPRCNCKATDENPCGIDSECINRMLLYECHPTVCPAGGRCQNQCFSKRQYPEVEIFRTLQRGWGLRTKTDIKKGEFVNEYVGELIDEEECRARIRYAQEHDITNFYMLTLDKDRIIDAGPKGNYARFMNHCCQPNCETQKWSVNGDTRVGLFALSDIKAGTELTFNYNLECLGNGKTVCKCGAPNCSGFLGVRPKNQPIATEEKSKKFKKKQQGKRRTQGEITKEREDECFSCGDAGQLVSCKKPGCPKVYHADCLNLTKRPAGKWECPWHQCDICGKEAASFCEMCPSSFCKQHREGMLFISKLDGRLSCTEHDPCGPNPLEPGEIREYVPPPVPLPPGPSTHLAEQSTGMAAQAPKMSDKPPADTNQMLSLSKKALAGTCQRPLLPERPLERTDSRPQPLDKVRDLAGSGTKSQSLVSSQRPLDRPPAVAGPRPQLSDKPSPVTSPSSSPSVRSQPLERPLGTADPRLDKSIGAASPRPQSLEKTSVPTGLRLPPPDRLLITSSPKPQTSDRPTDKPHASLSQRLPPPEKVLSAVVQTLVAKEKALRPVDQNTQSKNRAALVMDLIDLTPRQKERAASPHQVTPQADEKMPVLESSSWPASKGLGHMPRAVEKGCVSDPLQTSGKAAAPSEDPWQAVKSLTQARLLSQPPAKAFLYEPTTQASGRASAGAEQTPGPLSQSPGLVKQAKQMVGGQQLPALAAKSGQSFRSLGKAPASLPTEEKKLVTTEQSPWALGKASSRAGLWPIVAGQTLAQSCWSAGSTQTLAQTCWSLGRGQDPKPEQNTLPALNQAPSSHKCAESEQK

For the first test, the target named is T1, Histone-lysine N-methyltransferase NSD2 (Homo sapiens, UniProt O96028).
T1 sequence (O96028 whole entry): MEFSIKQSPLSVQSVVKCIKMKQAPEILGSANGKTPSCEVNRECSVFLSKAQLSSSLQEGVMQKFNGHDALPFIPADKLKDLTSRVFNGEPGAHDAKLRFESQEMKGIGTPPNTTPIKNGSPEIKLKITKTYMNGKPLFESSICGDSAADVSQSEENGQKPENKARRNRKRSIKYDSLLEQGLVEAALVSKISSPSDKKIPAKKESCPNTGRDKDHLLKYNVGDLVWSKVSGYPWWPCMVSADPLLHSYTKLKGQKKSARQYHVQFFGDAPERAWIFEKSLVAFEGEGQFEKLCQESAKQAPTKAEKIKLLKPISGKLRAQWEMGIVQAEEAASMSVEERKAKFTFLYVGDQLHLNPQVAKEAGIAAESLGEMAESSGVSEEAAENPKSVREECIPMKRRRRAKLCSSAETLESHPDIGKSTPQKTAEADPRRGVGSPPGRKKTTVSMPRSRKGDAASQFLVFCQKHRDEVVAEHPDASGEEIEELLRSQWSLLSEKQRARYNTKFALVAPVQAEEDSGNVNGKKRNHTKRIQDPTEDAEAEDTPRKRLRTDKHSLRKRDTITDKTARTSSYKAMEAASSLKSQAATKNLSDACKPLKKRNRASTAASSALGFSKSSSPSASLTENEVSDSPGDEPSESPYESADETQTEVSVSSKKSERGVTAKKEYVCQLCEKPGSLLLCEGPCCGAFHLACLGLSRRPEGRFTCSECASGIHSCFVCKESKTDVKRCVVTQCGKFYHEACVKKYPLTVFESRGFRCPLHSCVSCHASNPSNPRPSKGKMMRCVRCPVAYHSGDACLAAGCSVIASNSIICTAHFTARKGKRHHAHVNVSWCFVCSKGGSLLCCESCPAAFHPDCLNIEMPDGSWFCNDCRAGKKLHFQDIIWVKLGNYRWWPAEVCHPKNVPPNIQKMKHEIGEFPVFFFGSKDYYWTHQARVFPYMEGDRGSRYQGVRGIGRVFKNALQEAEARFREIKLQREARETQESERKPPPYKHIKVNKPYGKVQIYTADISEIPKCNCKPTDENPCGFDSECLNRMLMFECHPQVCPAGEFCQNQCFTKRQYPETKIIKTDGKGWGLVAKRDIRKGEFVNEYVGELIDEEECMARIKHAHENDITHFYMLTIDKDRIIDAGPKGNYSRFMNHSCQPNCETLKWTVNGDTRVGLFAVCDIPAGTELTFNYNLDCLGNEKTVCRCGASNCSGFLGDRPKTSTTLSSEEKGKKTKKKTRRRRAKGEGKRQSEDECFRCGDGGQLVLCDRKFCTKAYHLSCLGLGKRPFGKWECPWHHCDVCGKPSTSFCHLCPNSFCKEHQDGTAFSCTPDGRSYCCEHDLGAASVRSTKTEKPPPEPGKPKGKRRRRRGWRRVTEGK
In words: Inhibition of recombinant human N-terminal GST-tagged NSD2 CD (941 to 1240 residues) expressed in Escherichia coli using SAM as substrate in presence of nucleosomes by AlphaLISA method. In general terms: Bead proximity is the source of the signal in Alpha formats.
In the case of `Nc1ccc2cc(S(=O)(=O)NCc3ccccc3)ccc2c1`, the concentration for half-maximal inhibition (IC50) was above 20 µM.

With `O=C(NCc1ccccc1)c1cccc2[nH]ccc12`, the 50% inhibitory concentration (IC50) was above 20 µM.

With `O=C(OCc1ccccc1)N1CCC(Nc2cccc3c(S(=O)(=O)NCc4ccccc4)cccc23)CC1`, the IC50 was above 20 µM. As to `CN1CCC(CNS(=O)(=O)c2cccc3c(N)cccc23)CC1`, the IC50 was determined as 3.4 µM. In the case of `Nc1cccc2c(S(=O)(=O)NCCc3ccccc3)cccc12`, the half-inhibitory concentration (IC50) was 15.4 µM. Consider `Nc1cccc2cc(S(=O)(=O)NCc3ccccc3)ccc12`, for which the IC50 was above 20 µM. Still for that read-out and setting: with `Nc1cccc2c(S(=O)(=O)NC3CC3c3ccccc3)cccc12` (trans isomer) the figure was 19.9 µM; with `Nc1cccc2c(S(=O)(=O)NCc3ccc(C(=O)O)cc3)cccc12`, above 20 µM; with `O=C(c1ccccc1)N1CCC(Nc2cccc3c(S(=O)(=O)NCc4ccccc4)cccc23)CC1`, 18 µM. As to `CC(=O)N1CCC(Nc2cccc3c(S(=O)(=O)NCc4ccccc4)cccc23)CC1`, the IC50 stood at 7.5 µM. The same measure, in the same setting: with `Nc1cccc2c(S(=O)(=O)NCc3cccs3)cccc12` the figure was 22.7 µM.

For `Nc1cccc2c(S(=O)(=O)NCC3CCCNC3)cccc12` (centres undefined), the IC50 was above 20 µM. With `CN(Cc1ccccc1)S(=O)(=O)c1cccc2c(N)cccc12`, the half-maximal inhibitory concentration (IC50) was above 20 µM.

For the compound `Nc1cccc2c(S(=O)(=O)N3CCC(Cc4ccccc4)CC3)cccc12`, the IC50 was above 20 µM. Still for that read-out and setting: the value for `CCN1CCC(Nc2cccc3c(S(=O)(=O)NCc4ccccc4)cccc23)CC1` was 3.2 µM; that for `Nc1cccc2c(S(=O)(=O)NCC3CCCCC3)cccc12` was above 20 µM. Turning to `N#Cc1ccc(CNS(=O)(=O)c2cccc3c(N)cccc23)cc1`, the half-maximal inhibitory concentration (IC50) is 18.1 µM. Turning to `CS(=O)(=O)N1CCC(Nc2cccc3c(S(=O)(=O)NCc4ccccc4)cccc23)CC1`, the IC50 was found to be 11.8 µM. On the same count and under the same terms, with `O=S(=O)(NCc1ccccc1)c1cccc2c(NCC3CC3)cccc12` the figure was 10.7 µM; with `CN(C)c1cccc2c(S(=O)(=O)NCc3ccccc3)cccc12`, above 20 µM; with `N#Cc1cccc(CNS(=O)(=O)c2cccc3c(N)cccc23)c1`, above 20 µM. The same measure, in the same setting: the value for `O=S(=O)(NCc1ccccc1)c1cccc2ccccc12` was above 20 µM.

Turning to `Nc1cccc2c(S(=O)(=O)NCc3ccc(F)cc3)cccc12`, the IC50 turned out to be 14.1 µM. With `CC(=O)Nc1cccc2c(S(=O)(=O)NCc3ccccc3)cccc12`, the IC50 was above 20 µM. On the same count and under the same terms, the value for `CC(C)(C)NS(=O)(=O)c1cccc2c(N)cccc12` was 18.4 µM; that for `Nc1cccc2c(S(=O)(=O)NCc3ccc(C(F)(F)F)cc3)cccc12` was 10.4 µM.

For the compound `Nc1ccc(S(=O)(=O)NCc2ccccc2)c2ccccc12`, the IC50 is above 20 µM.

For `Nc1cccc2c(C(=O)NCc3ccccc3)cccc12`, the IC50 came to 19.4 µM.

Regarding `Nc1cccc2c(S(=O)(=O)Nc3ccccc3)cccc12`, the IC50 is above 20 µM. Same read-out and setting: the value for `O=C(NCc1ccccc1)c1cccc2ncccc12` was 19.6 µM. With `COc1ccc(CNS(=O)(=O)c2cccc3c(N)cccc23)cc1`, the IC50 was 13.5 µM. The same measure, in the same setting: the value for `CN1CCC(Nc2cccc3c(S(=O)(=O)NCc4ccccc4)cccc23)CC1` was 6 µM. In the case of `Nc1cccc2c(S(=O)(=O)NCc3ccncc3)cccc12`, the half-maximal inhibitory concentration (IC50) worked out at 26 µM. Still for that read-out and setting: with `Nc1ccc2c(S(=O)(=O)NCc3ccccc3)cccc2c1` the figure was above 20 µM; with `O=S(=O)(NCc1ccccc1)c1cccc2c(NC3CCNCC3)cccc12`, 10.2 µM; with `O=S(=O)(NCc1ccccc1)c1cccc2c(NC3CCCCC3)cccc12`, 12.6 µM.

The next test concerns the target T1, Histone-lysine N-methyltransferase NSD2. Put plainly: Binding affinity to MMSET (973 to 1203 residues) (unknown origin) expressed in Escherichia coli BL21 DE3 by ITC analysis.
On to `CCC(C)NC(CC[C@H](N)C(=O)O)C[C@H]1O[C@@H](n2cnc3c(N)ncnc32)[C@H](O)[C@@H]1O` (some centres undefined), for which the dissociation constant Kd came to 1.6 µM.

Another test shares this target. Put plainly: Inhibition of NSD2 (953 to 1240 residues) (unknown origin) using SAM as substrate in presence of nucleosome by AlphaScreen assay.
As to `CCC(C)NC(CC[C@H](N)C(=O)O)C[C@H]1O[C@@H](n2cnc3c(N)ncnc32)[C@H](O)[C@@H]1O` (some centres undefined), the half-maximal inhibitory concentration (IC50) is 3.3 µM.

The target is the same in a further test. Put plainly: Inhibition of NSD2 (unknown origin).
Compound `Nc1ncnc2c1ncn2[C@@H]1O[C@H](CC(N)CC[C@H](N)C(=O)O)[C@@H](O)[C@H]1O` (some centres undefined) showed an IC50 of 26 µM. Same read-out and setting: the value for `O=C1O[C@@H](C(=O)N2CCN(Cc3nc4sc5c(c4c(=O)[nH]3)CCCC5)CC2)Cc2ccccc21` was 11.2 µM; that for `NNc1nc2ccccc2nc1S` was 3 µM.

The next test has as its target Histone-lysine N-methyltransferase, H3 lysine-36 specific (Homo sapiens, UniProt Q96L73). Put plainly: Inhibition of human NSD1-SET using histone H3.1 as substrate incubated for 1 hr by Western blot analysis. On the technique in general: A western blot detects proteins with antibodies after separation by electrophoresis.
For `COc1cc2nc(N3CCN(C)CC3)nc(NC3CCN(Cc4ccccc4)CC3)c2cc1OC`, it took 112 µM to reach half-maximal inhibition (IC50).

The next test deals with T1, Histone-lysine N-methyltransferase NSD2. Put plainly: Inhibition of human NSD2-SET using histone H3.1 as substrate incubated for 1 hr by Western blot analysis.
For `COc1cc2nc(N3CCN(C)CC3)nc(NC3CCN(Cc4ccccc4)CC3)c2cc1OC`, the IC50 is 41 µM.

The target in the next test is Histone-lysine N-methyltransferase NSD3 (Homo sapiens, UniProt Q9BZ95). In words: Inhibition of human NSD3-SET using histone H3.1 as substrate incubated for 1 hr by Western blot analysis.
Chain of Histone-lysine N-methyltransferase NSD3 (Q9BZ95 whole entry): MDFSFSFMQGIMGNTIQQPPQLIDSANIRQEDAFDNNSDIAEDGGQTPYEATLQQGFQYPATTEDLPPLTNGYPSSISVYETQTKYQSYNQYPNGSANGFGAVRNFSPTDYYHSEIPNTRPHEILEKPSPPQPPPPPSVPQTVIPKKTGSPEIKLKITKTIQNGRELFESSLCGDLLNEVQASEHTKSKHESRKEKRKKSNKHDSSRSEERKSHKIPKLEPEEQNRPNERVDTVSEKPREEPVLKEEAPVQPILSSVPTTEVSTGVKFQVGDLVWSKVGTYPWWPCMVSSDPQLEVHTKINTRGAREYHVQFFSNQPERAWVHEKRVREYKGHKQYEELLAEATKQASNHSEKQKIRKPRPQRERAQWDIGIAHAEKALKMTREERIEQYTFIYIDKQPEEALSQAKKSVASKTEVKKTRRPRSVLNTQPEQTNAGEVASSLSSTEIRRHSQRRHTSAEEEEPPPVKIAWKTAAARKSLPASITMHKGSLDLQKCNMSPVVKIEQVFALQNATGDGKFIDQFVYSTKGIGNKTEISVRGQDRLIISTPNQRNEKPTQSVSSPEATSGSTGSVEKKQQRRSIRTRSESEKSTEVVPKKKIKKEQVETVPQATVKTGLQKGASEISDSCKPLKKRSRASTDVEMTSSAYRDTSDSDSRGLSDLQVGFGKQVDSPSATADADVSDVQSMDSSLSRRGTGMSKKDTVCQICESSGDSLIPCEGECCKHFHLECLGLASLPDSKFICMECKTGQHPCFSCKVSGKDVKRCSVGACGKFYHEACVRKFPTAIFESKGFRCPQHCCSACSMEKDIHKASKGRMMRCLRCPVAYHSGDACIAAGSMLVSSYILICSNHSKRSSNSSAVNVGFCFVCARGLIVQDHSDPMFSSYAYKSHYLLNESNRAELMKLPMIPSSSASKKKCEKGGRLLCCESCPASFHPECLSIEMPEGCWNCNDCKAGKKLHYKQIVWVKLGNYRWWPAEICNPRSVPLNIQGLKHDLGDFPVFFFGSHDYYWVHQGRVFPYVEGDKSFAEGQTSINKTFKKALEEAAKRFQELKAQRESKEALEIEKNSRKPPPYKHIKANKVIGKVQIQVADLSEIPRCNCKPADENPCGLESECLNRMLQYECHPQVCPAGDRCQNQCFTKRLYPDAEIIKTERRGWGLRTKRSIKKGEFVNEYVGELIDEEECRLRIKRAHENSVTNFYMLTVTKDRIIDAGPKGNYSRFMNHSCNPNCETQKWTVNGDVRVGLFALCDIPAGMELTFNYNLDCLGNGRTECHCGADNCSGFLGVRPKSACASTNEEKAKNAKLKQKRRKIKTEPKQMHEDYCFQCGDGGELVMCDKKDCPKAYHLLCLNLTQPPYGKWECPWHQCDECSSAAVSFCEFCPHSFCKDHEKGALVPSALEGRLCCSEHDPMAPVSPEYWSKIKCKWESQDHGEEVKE
For `COc1cc2nc(N3CCN(C)CC3)nc(NC3CCN(Cc4ccccc4)CC3)c2cc1OC`, the half-inhibitory concentration (IC50) was found to be 95 µM.

As a reminder, the IC50 is the concentration at which inhibition is half-maximal. For orientation: Kd means a measure of binding affinity in units of concentration.
